According to US12552790B2, “Positive modulators of the muscarinic acetylcholine receptor M4” (Vanderbilt University, priority 2023, dated 2026):
pEC50: −log10 of the molar value. Where two headings read alike, the source gives them in different places.

Target: T1, hM4 (Homo sapiens, UniProt P08173)
T1 construct: expressed in transfected cells; host or cells: CHO cells stably expressing human M4 (G418 selection only)
T1 sequence (P08173 1-479): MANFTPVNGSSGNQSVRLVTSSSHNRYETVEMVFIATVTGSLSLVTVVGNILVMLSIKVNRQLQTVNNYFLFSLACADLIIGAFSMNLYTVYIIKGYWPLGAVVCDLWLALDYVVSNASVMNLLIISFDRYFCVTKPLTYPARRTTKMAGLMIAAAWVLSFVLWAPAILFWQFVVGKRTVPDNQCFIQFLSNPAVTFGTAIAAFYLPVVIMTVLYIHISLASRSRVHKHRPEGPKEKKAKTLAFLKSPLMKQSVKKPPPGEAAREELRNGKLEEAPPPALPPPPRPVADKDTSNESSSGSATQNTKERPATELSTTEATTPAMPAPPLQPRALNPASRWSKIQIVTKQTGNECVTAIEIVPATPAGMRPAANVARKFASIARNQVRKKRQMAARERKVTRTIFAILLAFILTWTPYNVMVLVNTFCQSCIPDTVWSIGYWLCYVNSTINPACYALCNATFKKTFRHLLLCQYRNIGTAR
Experiment: Cellular cAMP Gi HTRF assay in CHO cells, agonist and potentiator modes
Assay type: cell-based
From the text: Activation of the M4 receptor leads to the inhibition of cAMP production by coupling to Gi/o proteins. To measure the level of cAMP inhibition by M4 allosteric modulators, a Homogeneous Time-Resolved Fluorescence (HTRF®) cAMP assay was employed using CHO cells stably expressing human or rat M4 receptors. The HTRF cAMP assay is a Time-Resolved Resonance Energy Transfer (TR-FRET) competitive immunoassay. Endogenous intracellular cAMP generated by cells competes with Europium cryptate-labeled cAMP (Europium donor, emission […]) for the binding to a cAMP antibody labeled with d2 (d2-acceptor, emission […]). Thus, the fluorescence emission ratio (665 nm/620 nm) is inversely proportional to the cAMP amount in the cells. Compound-mediated M4 activation results in an increase in HTRF ratio (665 nm/620 nm), indicative of a decrease in intracellular cAMP level. To monitor agonist activity, compounds were added to the M4 cells in the presence of an EC80 concentration of forskolin (adenylyl cyclase activator) which induces a submaximal intracellular cAMP level. To assess potentiator activity, compounds were added to the M4 cells with an EC80 concentration of forskolin in the presence of an EC20 concentration of acetylcholine. This functional assay allows determination of the potency and efficacy of compounds directly activating or potentiating the Gi/o-coupled M4 receptor; representative data are shown in Table 3.
Functional agonist and potentiator activities of compounds were determined by measuring cAMP levels in Chinese Hamster Ovary (CHO) cells stably expressing human or rat M4 muscarinic receptors using an HTRF cAMP Gi/o kit. Cells were maintained in F12 medium containing 10% FBS, 20 mM HEPES, 1× Antibiotic/Antimycotic, and G418 (500 μg/ml) in 37° C. humidified incubators in the presence of 5% CO2. The day before assay, the cells were trypsinized and resuspended in plating medium (growth medium without G418). The cells were plated to white, solid, flat-bottomed, 384 well plates at densities of 4,000 and 6,000 cells/[…]/well, of human M4 and rat M4 cells, respectively. The cell plates were spun at 100×g for 1 min, then immediately placed in a 37° C. incubator in the presence of 5% CO2 overnight.
The next day, reagents were freshly diluted at a 2× concentration in assay buffer using F12 basal medium or stimulation buffer. All assay buffers contained 500 μM IBMX to block cAMP degradation. Activation of M4 by compounds was examined in cells stimulated with an EC80 concentration of forskolin to induce submaximal intracellular cAMP levels. Forskolin EC80 concentrations were determined from forskolin concentration response curves (CRCs) and ranged from 1.5 to 2.5 μM. Compounds (10 mM) were prepared in 100% DMSO and further serially diluted either 1:3 or 1:5 into a […] CRC in DMSO using a Bravo Liquid Handler in a 384 well microplate.
Agonist assay mode was used to assess the abilities of M4 compounds to directly activate M4 receptors in the absence of the agonist, acetylcholine. The 10-point serially diluted compounds, starting 30 μM as a final concentration, were transferred to a compound plate using an Echo plate reformat protocol. 2× assay buffer containing an EC80 concentration of forskolin concentration was added to the compound plate. Vehicle (1% DMSO) was added to the following control wells; baseline cAMP (no forskolin), forskolin max, and forskolin EC80. 10 μL/well of the prepared 2× assay buffer was immediately added to the cell plates using a Bravo 384 well tip liquid handler. The cell plates were immediately spun for 30 seconds at 100×g and incubated at 37° C. for 10 min with gentle shaking at 50 rpm. An acetylcholine CRC was also performed in the presence of an EC80 concentration of forskolin to determine the concentrations of acetylcholine inducing maximal (ECmax) and submaximal (EC20) cAMP inhibition in order to prepare for the subsequent potentiator mode assay. […]

[1] = agonist mode, forskolin EC80, no acetylcholine
[2] = agonist mode, forskolin EC80, no acetylcholine, read-out: hM4_cAMP Activity Agonist EC50
[3] = potentiator mode, forskolin EC80 plus ACh EC20
[4] = potentiator mode, forskolin EC80 plus ACh EC20, read-out: hM4_cAMP Activity PAM EC50

hM4_cAMP Activity Agonist % ACh Max [1]	pEC50 [2]	hM4_cAMP Activity PAM % ACh Max [3]	pEC50 [4]	SMILES
105 % ACh Max	8.15	82 % ACh Max	8.70	[2H]C1([2H])Oc2ccc(OC3CCN(c4nc5nn(C)c(=O)n5c(C)c4C)CC3)cc2OC1([2H])[2H] [Compound A10, 7-(4-((2,3-dihydrobenzo[b][1,4]dioxin-6-yl-2,2,3,3-d4)oxy)piperidin-1-yl)-2,5,6-trimethyl-[1,2,4]triazolo[4,3-a]pyrimidin-3(2H)-one]
89 % ACh Max	7.80	70 % ACh Max	8.52	[2H]C1([2H])Oc2ccc(OC3CCN(c4nc5nn(C)c(=O)n5cc4C)CC3)cc2OC1([2H])[2H] [Compound A6, 7-(4-((2,3-dihydrobenzo[b][1,4]dioxin-6-yl-2,2,3,3-d4)oxy)piperidin-1-yl)-2,6-dimethyl-[1,2,4]triazolo[4,3-a]pyrimidin-3(2H)-one]
106 % ACh Max	7.70	94 % ACh Max	8.22	[2H]C1([2H])Oc2ccc(OC3CCN(c4nc5c(cc4C)C(=O)NC5)CC3)cc2OC1([2H])[2H] [Compound 3, 2-(4-((2,3-dihydrobenzo[b][1,4]dioxin-6-yl-2,2,3,3-d4)oxy)piperidin-1-yl)-3-methyl-6,7-dihydro-5H-pyrrolo[3,4-b]pyridin-5-one]
